PubChem BioAssay (NCI)
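GI50 marks 50% less growth. TGI: concentration producing complete growth inhibition.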

Assays:
Experiment in all cases: NCI-60 cell line screen, 384-well format
UO-31 renal = system: UO-31 renal
IGROV1 ovarian = system: IGROV1 ovarian
MDA-MB-468 breast = system: MDA-MB-468 breast
KM12 colon = system: KM12 colon
MOLT-4 leukemia = system: MOLT-4 leukemia
NCI-H322M lung = system: NCI-H322M lung
OVCAR-5 ovarian = system: OVCAR-5 ovarian
TK-10 renal = system: TK-10 renal
UACC-62 melanoma = system: UACC-62 melanoma
NCI-H522 lung = system: NCI-H522 lung
HCT-15 colon = system: HCT-15 colon
DU-145 prostate = system: DU-145 prostate
EKVX NSCLC = system: EKVX NSCLC
SK-MEL-2 melanoma = system: SK-MEL-2 melanoma
HL-60(TB) leukemia = system: HL-60(TB) leukemia
A549 NSCLC = system: A549 NSCLC
OVCAR-8 ovarian = system: OVCAR-8 ovarian
T-47D breast = system: T-47D breast
SR leukemia = system: SR leukemia
NCI-H226 lung = system: NCI-H226 lung
SK-MEL-28 melanoma = system: SK-MEL-28 melanoma
HOP-92 NSCLC = system: HOP-92 NSCLC
SN12C renal = system: SN12C renal
BT-549 breast = system: BT-549 breast
OVCAR-4 ovarian = system: OVCAR-4 ovarian
PC-3 prostate = system: PC-3 prostate
U251 glioblastoma = system: U251 glioblastoma
OVCAR-3 ovarian = system: OVCAR-3 ovarian

With `Cc1nc(Nc2n[nH]c3c2CN(C(=O)N[C@H](CN(C)C)c2ccccc2)C3(C)C)c2sccc2n1` the TGI (UO-31 renal) was 14400 nM, the GI50 (IGROV1 ovarian) was less than 10 nM and the TGI (IGROV1 ovarian) was 449 nM. The GI50 (MDA-MB-468 breast) was less than 10 nM, the TGI (MDA-MB-468 breast) was 431 nM and the GI50 (KM12 colon) was less than 10 nM. For the same compound, the TGI (KM12 colon) was 1060 nM, the GI50 (MOLT-4 leukemia) was less than 10 nM and the TGI (MOLT-4 leukemia) was 122 nM. For the same compound, the GI50 (NCI-H322M lung) was 174 nM, the TGI (NCI-H322M lung) was 1580 nM and the GI50 (OVCAR-5 ovarian) was 61.3 nM. It also gave a TGI (OVCAR-5 ovarian) of 11200 nM, a GI50 (TK-10 renal) of 179 nM and a TGI (TK-10 renal) of 11000 nM. The GI50 (UACC-62 melanoma) was less than 10 nM, the TGI (UACC-62 melanoma) was 19.4 nM and the GI50 (NCI-H522 lung) was less than 10 nM. The TGI (NCI-H522 lung) was 214 nM, the GI50 (HCT-15 colon) was 449 nM and the TGI (HCT-15 colon) was 13600 nM. For the same compound, the GI50 (DU-145 prostate) was less than 10 nM, the TGI (DU-145 prostate) was 10200 nM and the GI50 (EKVX NSCLC) was 195 nM. It also gave a TGI (EKVX NSCLC) of 2140 nM, a GI50 (SK-MEL-2 melanoma) of less than 10 nM and a TGI (SK-MEL-2 melanoma) of 207 nM. The GI50 (HL-60(TB) leukemia) was less than 10 nM, the TGI (HL-60(TB) leukemia) was 117 nM and the GI50 (A549 NSCLC) was 39.6 nM. The TGI (A549 NSCLC) was 61700 nM, the GI50 (OVCAR-8 ovarian) was 33.3 nM and the TGI (OVCAR-8 ovarian) was 1470 nM. The GI50 (T-47D breast) was 576 nM, the TGI (T-47D breast) was 3840 nM and the GI50 (SR leukemia) was less than 10 nM. It also gave a GI50 (NCI-H226 lung) of 88.1 nM, a TGI (NCI-H226 lung) of 1590 nM and a GI50 (SK-MEL-28 melanoma) of less than 10 nM. The TGI (SK-MEL-28 melanoma) was 1260 nM, the GI50 (HOP-92 NSCLC) was 131 nM and the TGI (HOP-92 NSCLC) was 911 nM. The GI50 (SN12C renal) was less than 10 nM, the TGI (SN12C renal) was 1150 nM and the GI50 (BT-549 breast) was less than 10 nM. It also gave a TGI (BT-549 breast) of 109 nM, a GI50 (OVCAR-4 ovarian) of 40.6 nM and a TGI (OVCAR-4 ovarian) of 3790 nM. For the same compound, the GI50 (PC-3 prostate) was less than 10 nM, the TGI (PC-3 prostate) was 642 nM and the GI50 (U251 glioblastoma) was less than 10 nM. It also gave a TGI (U251 glioblastoma) of 2660 nM, a GI50 (OVCAR-3 ovarian) of less than 10 nM and a TGI (OVCAR-3 ovarian) of 152 nM.
